Assay results published in ChEMBL document CHEMBL5518209, “Caltrop-like Small-Molecule Antidotes That Neutralize Unfractionated Heparin and Low-Molecular-Weight Heparin In Vivo” (J Med Chem, 2024).
Values belong to the compound of their own block, whether it stands above or below them. The source made the active and inactive calls. No cut-off for these calls is given here.

Assays:
Erythrocyte [1] = experiment: Hemolytic activity in Sprague-Dawley rat red blood cells at 256 ug/ml; assay type: toxicity, cell-based; conditions: dose 256 µg/ml
[2] = Binding affinity to nadroparin calcium in saline at pH 7.4 assessed as change in enthalpy by ITC analysis
[3] = Binding affinity to enoxaparin sodium in saline at pH 7.4 assessed as binding constant by ITC analysis
Bos taurus [4] = species on record: Bos taurus; experiment: Neutralization of dalteparin sodium in bovine plasma at 10 to 60 ug/ml by aPTT assay; assay type: cell-free; conditions: dose 10-60 µg/ml
[5] = Binding affinity to enoxaparin sodium in saline at pH 7.4 assessed as change in enthalpy by ITC analysis
[6] = Binding affinity to nadroparin calcium in saline at pH 7.4 assessed as change in gibbs free energy by ITC analysis
[7] = Binding affinity to dalteparin sodium in saline at pH 7.4 assessed as binding constant by ITC analysis
[8] = Binding affinity to unfractionated heparin in saline at pH 7.4 assessed as change in entropy by ITC analysis
[9] = Binding affinity to unfractionated heparin in saline at pH 7.4 assessed as binding constant by ITC analysis
[10] = Binding affinity to enoxaparin sodium in saline at pH 7.4 assessed as change in gibbs free energy by ITC analysis
[11] = Acute toxicity in iv dosed ICR mouse assessed as maximum tolerated dose measured after 7 days; assay type: organism-based; conditions: in vivo, time 7 day
[12] = Binding affinity to nadroparin calcium in saline at pH 7.4 assessed as binding constant by ITC analysis
[13] = Binding affinity to enoxaparin sodium in saline at pH 7.4 assessed as change in entropy by ITC analysis
[14] = Binding affinity to unfractionated heparin in saline at pH 7.4 assessed as change in gibbs free energy by ITC analysis
[15] = Binding affinity to unfractionated heparin in saline at pH 7.4 assessed as change in enthalpy by ITC analysis
[16] = Binding affinity to dalteparin sodium in saline at pH 7.4 assessed as change in enthalpy by ITC analysis
[17] = Blood compatibility in bovine plasma assessed as activated partial thromboplastin time at <23 ug/ml by turbidimetry method; assay type: toxicity, cell-free, Bos taurus; conditions: cattle, dose < 23 µg/ml
[18] = Binding affinity to dalteparin sodium in saline at pH 7.4 assessed as change in gibbs free energy by ITC analysis
[19] = Binding affinity to nadroparin calcium in saline at pH 7.4 assessed as change in entropy by ITC analysis
Homo sapiens [20] = species on record: Homo sapiens; experiment: Neutralization of dalteparin sodium in human poor platelet plasma at 10 to 50 ug/ml by aPTT assay; assay type: cell-free; conditions: dose 10-50 µg/ml
[21] = Binding affinity to dalteparin sodium in saline at pH 7.4 assessed as change in entropy by ITC analysis
Erythrocyte [22] = experiment: Hemolytic activity in human red blood cells at 256 ug/ml; assay type: toxicity, cell-based; conditions: dose 256 µg/ml
Bos taurus [23] = species on record: Bos taurus; experiment: Neutralization of unfractionated heparin in bovine plasma at 10 to 60 ug/ml by aPTT assay; assay type: cell-free; conditions: dose 10-60 µg/ml
Bos taurus [24] = species on record: Bos taurus; experiment: Neutralization of nadroparin calcium in bovine plasma at 10 to 60 ug/ml by aPTT assay; assay type: cell-free; conditions: dose 10-60 µg/ml
Bos taurus [25] = species on record: Bos taurus; experiment: Neutralization of enoxaparin sodium in bovine plasma at 10 to 60 ug/ml by aPTT assay; assay type: cell-free; conditions: dose 10-60 µg/ml
Bos taurus [26] = species on record: Bos taurus; experiment: Neutralization of nadroparin calcium in bovine plasma at 10 to 60 ug/ml by aPTT assay relative to control; assay type: cell-free; conditions: dose 10-60 µg/ml
Bos taurus [27] = species on record: Bos taurus; experiment: Neutralization of dalteparin sodium in bovine plasma at 10 to 60 ug/ml by aPTT assay relative to control; assay type: cell-free; conditions: dose 10-60 µg/ml
Homo sapiens [28] = species on record: Homo sapiens; experiment: Neutralization of unfractionated heparin in human poor platelet plasma at 10 to 50 ug/ml by aPTT assay relative to control; assay type: cell-free; conditions: dose 10-50 µg/ml
Bos taurus [29] = species on record: Bos taurus; experiment: Neutralization of unfractionated heparin in bovine plasma at 10 to 60 ug/ml by aPTT assay relative to control; assay type: cell-free; conditions: dose 10-60 µg/ml
Homo sapiens [30] = species on record: Homo sapiens; experiment: Neutralization of enoxaparin sodium in human poor platelet plasma at 10 to 50 ug/ml by aPTT assay relative to control; assay type: cell-free; conditions: dose 10-50 µg/ml
Homo sapiens [31] = species on record: Homo sapiens; experiment: Neutralization of dalteparin sodium in human poor platelet plasma at 10 to 50 ug/ml by aPTT assay relative to control; assay type: cell-free; conditions: dose 10-50 µg/ml
Bos taurus [32] = species on record: Bos taurus; experiment: Neutralization of enoxaparin sodium in bovine plasma at 10 to 60 ug/ml by aPTT assay relative to control; assay type: cell-free; conditions: dose 10-60 µg/ml
Homo sapiens [33] = species on record: Homo sapiens; experiment: Reversal of anticoagulation of dalteparin sodium in human whole blood assessed as minimum effective dose incubated for 5 mins by thromboelastography; assay type: tissue-based
Homo sapiens [34] = species on record: Homo sapiens; experiment: Reversal of anticoagulation of nadroparin calcium in human whole blood assessed as minimum effective dose incubated for 5 mins by thromboelastography; assay type: tissue-based
[35] = Blood compatibility in bovine plasma assessed as activated partial thromboplastin time at <54 ug/ml by turbidimetry method; assay type: toxicity, cell-free, Bos taurus; conditions: cattle, dose < 54 µg/ml
Homo sapiens [36] = species on record: Homo sapiens; experiment: Neutralization of enoxaparin sodium in human poor platelet plasma at 10 to 50 ug/ml by aPTT assay; assay type: cell-free; conditions: dose 10-50 µg/ml
Homo sapiens [37] = species on record: Homo sapiens; experiment: Reversal of anticoagulation of unfractionated heparin in human whole blood assessed as minimum effective dose incubated for 5 mins by thromboelastography; assay type: tissue-based
Erythrocyte [38] = experiment: Hemolytic activity in Sprague-Dawley rat red blood cells at 512 ug/ml; assay type: toxicity, cell-based; conditions: dose 512 µg/ml
Erythrocyte [39] = experiment: Hemolytic activity in human red blood cells at 512 ug/ml; assay type: toxicity, cell-based; conditions: dose 512 µg/ml
Homo sapiens [40] = species on record: Homo sapiens; experiment: Reversal of anticoagulation of enoxaparin sodium in human whole blood assessed as minimum effective dose incubated for 5 mins by thromboelastography; assay type: tissue-based

Structure (SMILES): NCCOc1cc(-c2cc[n+](Cc3ccc(C(c4ccc(C[n+]5ccc(-c6cc(OCCN)c(OCCN)c(OCCN)c6)cc5)cc4)(c4ccc(C[n+]5ccc(-c6cc(OCCN)c(OCCN)c(OCCN)c6)cc5)cc4)c4ccc(C[n+]5ccc(-c6cc(OCCN)c(OCCN)c(OCCN)c6)cc5)cc4)cc3)cc2)cc(OCCN)c1OCCN.[Cl-].[Cl-].[Cl-].[Cl-]
Activity (Erythrocyte [1]): Non-Toxic
deltaH [2]: -4.83 kcal/mol
Ka [3]: 4.85e+06 M⁻¹
Activity (Bos taurus [4]): Active
deltaH [5]: -5.63 kcal/mol
deltaG [6]: -9.19 kcal/mol
Ka [7]: 7.09e+06 M⁻¹
-TdeltaS [8]: -3.64 kcal/mol
Ka [9]: 3.72e+06 M⁻¹
deltaG [10]: -9.12 kcal/mol
MTD at 168 h [11]: 20 mg/kg
Ka [12]: 5.43e+06 M⁻¹
-TdeltaS [13]: -3.49 kcal/mol
deltaG [14]: -8.97 kcal/mol
deltaH [15]: -5.33 kcal/mol
deltaH [16]: -4.86 kcal/mol
APTT [17]: 23 s
deltaG [18]: -9.35 kcal/mol
-TdeltaS [19]: -4.37 kcal/mol
Activity (Homo sapiens [20]): Active
-TdeltaS [21]: -4.48 kcal/mol
Activity (Erythrocyte [22]): Non-Toxic

Activity (Bos taurus [23]): inactive
Activity (Bos taurus [4]): inactive
Activity (Bos taurus [24]): inactive
Activity (Bos taurus [25]): inactive
Structure (SMILES): c1cc[n+](Cc2ccc(C(c3ccc(C[n+]4ccccc4)cc3)(c3ccc(C[n+]4ccccc4)cc3)c3ccc(C[n+]4ccccc4)cc3)cc2)cc1

Structure (SMILES): NCCCOc1ccc(-c2cc[n+](Cc3ccc(C(c4ccc(C[n+]5ccc(-c6ccc(OCCCN)cc6)cc5)cc4)(c4ccc(C[n+]5ccc(-c6ccc(OCCCN)cc6)cc5)cc4)c4ccc(C[n+]5ccc(-c6ccc(OCCCN)cc6)cc5)cc4)cc3)cc2)cc1.[Cl-].[Cl-].[Cl-].[Cl-]
Activity (Bos taurus [26]): > 86%
Activity (Bos taurus [23]): Active
Activity (Bos taurus [4]): Active
Activity (Bos taurus [27]): > 98%
Activity (Bos taurus [24]): Active
MTD at 168 h [11]: 15 mg/kg
Activity (Homo sapiens [28]): > 98%
Activity (Bos taurus [29]): > 98%
Activity (Bos taurus [25]): Active
Activity (Homo sapiens [30]): > 98%
Activity (Homo sapiens [31]): > 98%
Activity (Bos taurus [32]): > 98%

Activity (Bos taurus [23]): Active
Activity (Bos taurus [4]): Active
Activity (Bos taurus [24]): Active
Activity (Bos taurus [25]): Active
Structure (SMILES): NCCOc1ccc2c[n+](Cc3ccc(C(c4ccc(C[n+]5ccc6cc(OCCN)ccc6c5)cc4)(c4ccc(C[n+]5ccc6cc(OCCN)ccc6c5)cc4)c4ccc(C[n+]5ccc6cc(OCCN)ccc6c5)cc4)cc3)ccc2c1

Activity (Bos taurus [23]): Active
Activity (Bos taurus [4]): Active
Activity (Bos taurus [24]): Active
Activity (Bos taurus [25]): Active
Structure (SMILES): NCCOc1ccc(-n2cc[n+](Cc3ccc(C(c4ccc(C[n+]5ccn(-c6ccc(OCCN)cc6)c5)cc4)(c4ccc(C[n+]5ccn(-c6ccc(OCCN)cc6)c5)cc4)c4ccc(C[n+]5ccn(-c6ccc(OCCN)cc6)c5)cc4)cc3)c2)cc1

Structure (SMILES): NCCSc1ccc(-c2cc[n+](Cc3ccc(C(c4ccc(C[n+]5ccc(-c6ccc(SCCN)cc6)cc5)cc4)(c4ccc(C[n+]5ccc(-c6ccc(SCCN)cc6)cc5)cc4)c4ccc(C[n+]5ccc(-c6ccc(SCCN)cc6)cc5)cc4)cc3)cc2)cc1.[Cl-].[Cl-].[Cl-].[Cl-]
Activity (Bos taurus [23]): Active
Activity (Bos taurus [4]): Active
Activity (Bos taurus [24]): Active
MTD at 168 h [11]: 8 mg/kg
Activity (Bos taurus [25]): Active

Activity (Bos taurus [23]): inactive
Activity (Bos taurus [4]): inactive
Activity (Bos taurus [24]): inactive
Activity (Bos taurus [25]): inactive
Structure (SMILES): Cn1cc[n+](Cc2ccc(C(c3ccc(C[n+]4ccn(C)c4)cc3)(c3ccc(C[n+]4ccn(C)c4)cc3)c3ccc(C[n+]4ccn(C)c4)cc3)cc2)c1

Structure (SMILES): NCC(=O)Nc1ccc(-c2cc[n+](Cc3ccc(C(c4ccc(C[n+]5ccc(-c6ccc(NC(=O)CN)cc6)cc5)cc4)(c4ccc(C[n+]5ccc(-c6ccc(NC(=O)CN)cc6)cc5)cc4)c4ccc(C[n+]5ccc(-c6ccc(NC(=O)CN)cc6)cc5)cc4)cc3)cc2)cc1.[Cl-].[Cl-].[Cl-].[Cl-]
Activity (Bos taurus [23]): Active
Activity (Bos taurus [4]): Active
Activity (Bos taurus [27]): > 98%
Activity (Bos taurus [24]): Active
MTD at 168 h [11]: 8 mg/kg
Activity (Homo sapiens [28]): > 98%
Activity (Bos taurus [29]): > 98%
Activity (Bos taurus [25]): Active
Activity (Homo sapiens [30]): > 98%
Activity (Homo sapiens [31]): > 98%
Activity (Bos taurus [32]): > 98%

Structure (SMILES): NCCOc1ccc(-c2cc[n+](Cc3ccc(C(c4ccc(C[n+]5ccc(-c6ccc(OCCN)cc6)cc5)cc4)(c4ccc(C[n+]5ccc(-c6ccc(OCCN)cc6)cc5)cc4)c4ccc(C[n+]5ccc(-c6ccc(OCCN)cc6)cc5)cc4)cc3)cc2)cc1.[Cl-].[Cl-].[Cl-].[Cl-]
MED (Homo sapiens [33]): 10 µg/mL
deltaH [2]: -4.38 kcal/mol
Ka [3]: 4.61e+06 M⁻¹
MED (Homo sapiens [34]): 10 µg/mL
deltaH [5]: -5.87 kcal/mol
deltaG [6]: -9.15 kcal/mol
Ka [7]: 8.77e+06 M⁻¹
-TdeltaS [8]: -4.43 kcal/mol
Ka [9]: 4.72e+06 M⁻¹
deltaG [10]: -9.09 kcal/mol
APTT [35]: 23 s
MTD at 168 h [11]: 17.5 mg/kg
Ka [12]: 5e+06 M⁻¹
Activity (Homo sapiens [36]): Active
MED (Homo sapiens [37]): 12 µg/mL
Activity (Bos taurus [25]): Active
Activity (Erythrocyte [38]): Non-Toxic
Activity (Erythrocyte [39]): Non-Toxic
-TdeltaS [13]: -3.23 kcal/mol
deltaG [14]: -9.11 kcal/mol
deltaH [15]: -4.67 kcal/mol
deltaH [16]: -4.53 kcal/mol
MED (Homo sapiens [40]): 10 µg/mL
deltaG [18]: -9.47 kcal/mol
-TdeltaS [19]: -4.77 kcal/mol
-TdeltaS [21]: -4.94 kcal/mol

Activity (Bos taurus [23]): inactive
Activity (Bos taurus [4]): inactive
Activity (Bos taurus [24]): inactive
Activity (Bos taurus [25]): inactive
Structure (SMILES): COc1ccc(-c2cc[n+](Cc3ccc(C(c4ccc(C[n+]5ccc(-c6ccc(OC)cc6)cc5)cc4)(c4ccc(C[n+]5ccc(-c6ccc(OC)cc6)cc5)cc4)c4ccc(C[n+]5ccc(-c6ccc(OC)cc6)cc5)cc4)cc3)cc2)cc1
